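96-well plates; 48 h exposure; 5 concentrations. Endpoints by linear interpolation between flanking doses. Not reached: highest tested concentration assigned. GI50 is the concentration that inhibits growth by half. TGI marks complete inhibition of growth.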
Tests used:
Assay in all cases: NCI-60 cell line screen, 48 h
K-562 leukemia = system: K-562 leukemia
MALME-3M melanoma = system: MALME-3M melanoma
PC-3 prostate = system: PC-3 prostate
NCI/ADR-RES ovarian = system: NCI/ADR-RES ovarian
NCI-H460 lung = system: NCI-H460 lung
LOX IMVI melanoma = system: LOX IMVI melanoma
CCRF-CEM leukemia = system: CCRF-CEM leukemia
NCI-H226 lung = system: NCI-H226 lung
M14 melanoma = system: M14 melanoma
MOLT-4 leukemia = system: MOLT-4 leukemia

SMILES | GI50 (K-562 leukemia) | TGI (K-562 leukemia) | GI50 (MALME-3M melanoma) | TGI (MALME-3M melanoma) | GI50 (PC-3 prostate) | TGI (PC-3 prostate) | GI50 (NCI/ADR-RES ovarian) | TGI (NCI/ADR-RES ovarian) | GI50 (NCI-H460 lung) | TGI (NCI-H460 lung) | GI50 (LOX IMVI melanoma) | TGI (LOX IMVI melanoma) | GI50 (CCRF-CEM leukemia) | TGI (CCRF-CEM leukemia) | GI50 (NCI-H226 lung) | TGI (NCI-H226 lung) | GI50 (M14 melanoma) | TGI (M14 melanoma) | GI50 (MOLT-4 leukemia) | TGI (MOLT-4 leukemia)
N#CC(NC(=O)CCl)=C(Cl)Cl | 0.595 µM | 2.71 µM | 1.49 µM | 3.02 µM | 1.69 µM | 4.22 µM | 2.95 µM | 16.8 µM | 2.69 µM | 7.47 µM | 1.57 µM | 3.1 µM | 0.377 µM | 1.79 µM | 2.59 µM | 6.56 µM | 1.34 µM | 2.87 µM |  | 
CCCCCCCCCCCCOC1C(C(CC(=O)N2CCN(Cc3ccc4c(c3)OCO4)CC2)NS(=O)(=O)c2cc(Cl)cc(Cl)c2)OC2OC(C)(C)OC21 (stereo unspecified) | 14.8 µM | > 100 µM | > 93.1 µM | > 100 µM | 4.04 µM | > 100 µM | > 100 µM | > 100 µM | 5.44 µM | 35 µM | 16 µM | > 65.9 µM |  |  | 43.5 µM | > 100 µM | 61.1 µM | > 100 µM | 5.03 µM | > 100 µM
COc1cc(/C=C\c2cc(OC)c(OC)c(OC)c2)cc(NS(=O)(=O)c2ccc(Cl)cc2)c1OC | 0.306 µM | 34.6 µM |  |  | 0.395 µM | > 100 µM | 0.365 µM | > 100 µM | 0.364 µM | 51.4 µM | 0.566 µM | > 100 µM | 0.388 µM | > 100 µM | 13.5 µM | > 100 µM | 0.391 µM | 22.9 µM | 0.672 µM | 31.9 µM
Nc1nc(=S)[nH]c(C(=O)Nc2nccs2)c1-c1ccccc1 |  | > 100 µM |  | > 100 µM |  |  |  |  |  | > 100 µM |  | > 100 µM |  | > 100 µM |  | > 100 µM |  | > 100 µM |  | > 100 µM
CCSc1ncc(Br)c(Sc2nc(N)nc3nc[nH]c23)n1 | 3.11 µM | > 100 µM | 1.25 µM | 34.3 µM | 4.77 µM | > 100 µM | 3.48 µM | > 100 µM | 3.08 µM | 23.4 µM | 2.39 µM | > 100 µM |  |  | 2.59 µM | > 100 µM | 1.79 µM | 8.68 µM | 3.42 µM | > 100 µM
COc1ccc(C(=O)O/N=C2/CCCCC2CN(C)C)cc1 (stereo unspecified) |  | > 100 µM |  | > 100 µM |  |  |  |  |  | > 100 µM |  | > 100 µM |  | > 100 µM |  | > 100 µM |  | > 100 µM |  | > 100 µM
Oc1ccccc1C=Nc1nc(OCc2ccccc2)nc2[nH]ncc12 | 30.3 µM | > 100 µM | 16.6 µM | 38.2 µM | 16.8 µM | 51.4 µM | 28.5 µM | 78.8 µM | 24.4 µM | > 100 µM | 18 µM | 46.2 µM |  |  | 16.5 µM | 40.6 µM | 21.6 µM | 57.7 µM | 21.5 µM | > 100 µM

From PubChem BioAssay (NCI)
